Measurements from US20230335758A1, “REDOX FLOW BATTERY” (University of Massachusetts, priority 2022, published 2023).

What was measured:
[1] = Solubility of AQS ionic derivatives in MeCN, measured by UV-vis (Beer's law); format: physicochemical; conditions: cooled to room temperature after stirring at 40° C.
From the text: Beer's law was used to measure the concentration of the solution using pre-determined molar extinction coefficient using standard calibration curve.

[2] = Cyclic voltammetry of AQS (Randles-Sevcik analysis); format: physicochemical
Procedure: Cyclic voltammetry was performed at room temperature in inert atmosphere of dinitrogen using three electrode cell on a VersaSTAT3 workstation. (Princeton Applied Research, USA). Glassy carbon (3 mm, Basi) was employed as working electrode and platinum wire was used as counter electrode. Ag wire was used as pseudo reference electrode with Fc/Fc^+ couple as an internal standard for initial redox potential evaluation. Subsequently, all potentials were referenced to SHE. Diffusion coefficient was calculated using Randles-Sevcik equation as follow.
where, ip is the peak current, n is number electron in redox reaction, F is faraday constant, A is geometrical surface area of electrode, C is the bulk concentration of analyte, ν is scan rate, D is diffusion coefficient and R and T are gas constant and absolute temperature. CV curves were obtained at various scan rate and peak current were plotted against square root of scan rate. Slope (m) of the linear fit was used to determine diffusion coefficient using following equation.

[3] = vanadium(iv) ion chelation; cited from earlier work
[4] = vs. SHE in DMSO; cited from earlier work

Compound: O=C1c2ccccc2C(=O)c2ccccc21 [AQ, reference compound]
- Solubility [1]: <5 mM

Compound: O=C1c2ccccc2C(=O)c2cc(S(=O)(=O)O)ccc21 [AQS, Anthraquinone 2-sulfonate]
- diffusion coefficient ([2]; CV at various scan rates, Randles-Sevcik plot): 8.46×10^−6 cm^2 s^−1
- potential of first electrochemically reversible wave (1^−/2^− couple) ([2]; vs SHE): −0.6 V
- potential of second electrochemically reversible wave (2^−/3^− couple) ([2]; vs SHE): −1.2 V

Compound: C[C@@H](C(=O)[O-])N(O)[C@@H](C)C(=O)[O-].C[C@@H](C(=O)[O-])N(O)[C@@H](C)C(=O)[O-].[V+4] [Amavadin]
- log equilibrium constant (log Keq), stability constant [3]: 23

Compound: CC[N+](CC)(CC)CC.O=C1c2ccccc2C(=O)c2cc(S(=O)(=O)[O-])ccc21 [N2222AQS]
- Solubility [1]: 105 mM

Compound: CCC[N+](CCC)(CCC)CCC.O=C1c2ccccc2C(=O)c2cc(S(=O)(=O)[O-])ccc21 [N3333AQS]
- Solubility [1]: 640 mM

Compound: CCCC[N+](CCCC)(CCCC)CCCC.O=C1c2ccccc2C(=O)c2cc(S(=O)(=O)[O-])ccc21 [N4444AQS]
- Solubility [1]: 1260 mM

Compound: O=C1c2ccccc2C(=O)c2cc(S(=O)(=O)[O-])ccc21.[Na+] [NaAQS, sodium anthraquinone-2-sulfonate, reference compound]
- solubility at 15 min ([1]; MeCN (acetonitrile), organic solvent or mixture, thermodynamic from solid): < 1 mM

Compound: vanadium(IV/V)bis-hydroxyiminodiacetate [VBH]
- E° (standard potential) [4]: 0.30 V
